Measurements taken from paper PMC12154458, “High-Throughput Screens of Repurposing Hub and DOS Chemical Libraries Reveal Compounds with Novel and Potent Inhibitory Activity Against the Essential Non-Neuronal Acetylcholinesterase of Schistosoma mansoni (SmTAChE)” (International Journal of Molecular Sciences, 2025).
Counter-ions that a name gives are not always drawn.

Tests used:
rSmTAChE [1] = target: T1, rSmTAChE (Schistosoma mansoni, UniProt A0A3Q0KMM5); type: biochemical; settings: for IC50: read-out: qAC50 (IC50), rSmTAChE;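 for Inhibition (%) (Average): mostly 20 µM final but a few compounds at 5 or 10 µM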;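 for Inhibition (%) Replicate A: mostly 20 µM final but a few compounds at 5 or 10 µM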;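 for Inhibition (%) Replicate B: mostly 20 µM final but a few compounds at 5 or 10 µM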
rSmTAChE [2] = target: T1, rSmTAChE; assay: biochemical
[3] = target: recombinant human acetylcholinesterase, rHsAChE (Homo sapiens, UniProt P22303); assay: biochemical; settings: for IC50: read-out: qAC50 (IC50), rHsAChE; for inhibition of rHsAChE, result in words: dose–response, up to 40 µM
Sequence of recombinant human acetylcholinesterase, rHsAChE (P22303 32-614): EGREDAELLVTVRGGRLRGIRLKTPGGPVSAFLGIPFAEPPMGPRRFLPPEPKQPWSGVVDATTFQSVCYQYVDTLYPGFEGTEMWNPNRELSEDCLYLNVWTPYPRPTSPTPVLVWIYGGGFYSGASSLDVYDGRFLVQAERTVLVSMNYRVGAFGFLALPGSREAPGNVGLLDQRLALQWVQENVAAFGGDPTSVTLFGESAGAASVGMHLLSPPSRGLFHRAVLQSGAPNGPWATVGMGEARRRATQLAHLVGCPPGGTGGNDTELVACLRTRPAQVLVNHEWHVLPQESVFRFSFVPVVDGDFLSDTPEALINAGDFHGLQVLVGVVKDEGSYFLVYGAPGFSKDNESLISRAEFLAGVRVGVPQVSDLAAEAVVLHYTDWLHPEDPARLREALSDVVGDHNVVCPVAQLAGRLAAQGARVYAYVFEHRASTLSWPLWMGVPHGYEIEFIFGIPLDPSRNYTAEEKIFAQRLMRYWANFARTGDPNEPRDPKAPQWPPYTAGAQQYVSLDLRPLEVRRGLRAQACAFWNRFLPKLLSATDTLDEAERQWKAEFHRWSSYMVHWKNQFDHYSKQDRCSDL

T1 sequence (A0A3Q0KMM5 27-661 limits assumed): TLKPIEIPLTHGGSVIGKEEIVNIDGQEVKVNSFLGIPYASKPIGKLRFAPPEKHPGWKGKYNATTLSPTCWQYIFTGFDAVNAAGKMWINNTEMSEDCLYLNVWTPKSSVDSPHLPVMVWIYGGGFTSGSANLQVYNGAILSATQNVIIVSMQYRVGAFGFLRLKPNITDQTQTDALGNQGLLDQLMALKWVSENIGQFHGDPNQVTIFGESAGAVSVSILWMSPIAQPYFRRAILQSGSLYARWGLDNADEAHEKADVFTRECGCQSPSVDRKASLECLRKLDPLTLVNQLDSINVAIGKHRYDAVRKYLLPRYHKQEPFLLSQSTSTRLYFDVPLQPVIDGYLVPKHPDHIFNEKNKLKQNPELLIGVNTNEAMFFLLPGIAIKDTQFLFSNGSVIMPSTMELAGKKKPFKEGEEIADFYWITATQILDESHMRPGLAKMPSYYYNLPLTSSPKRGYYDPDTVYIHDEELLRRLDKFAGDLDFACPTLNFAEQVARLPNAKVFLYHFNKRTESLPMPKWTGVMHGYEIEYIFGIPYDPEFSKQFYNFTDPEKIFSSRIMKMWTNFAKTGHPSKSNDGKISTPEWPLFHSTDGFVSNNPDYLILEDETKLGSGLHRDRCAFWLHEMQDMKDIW

SMILES	Data Mode (curve class), rSmTAChE (rSmTAChE [1])	Inhibition (%) (Average) (rSmTAChE [2])	Inhibition (%) Replicate A (rSmTAChE [2]) [%]	Inhibition (%) Replicate B (rSmTAChE [2]) [%]	Data Mode (curve class), rHsAChE [3]	IC50 (rSmTAChE [1]) [µM]	IC50 [3] [µM]	inhibition at 20 µM (rSmTAChE [2]; read-out: rSmTAChE HTS Inhibition (Ave, %)) [%]	IC50 (µM) rHsAChE [3]	inhibition of rHsAChE, result in words [3]	inhibition of rHsAChE, result in words ([3]; listed as #19)
COC(=O)C1=C(C)NC(C)=C(C(=O)OC(C)(C)CN(C)CCC(c2ccccc2)c2ccccc2)C1c1cccc([N+](=O)[O-])c1 (stereo not drawn) [BRD-A18992208-003-02-7]	inactive	78.14	77.49	78.79	inactive						
Cc1cc(Oc2ccc3nc(COc4ccc(CC5SC(=O)NC5=O)cc4)n(C)c3c2)cc(C)c1N (stereo not drawn) [BRD-A24560335-300-01-2]	decreasing (weakly active)	64.01	61.34	66.67	inactive	> 38					
Clc1ccc(C(c2ccccc2Cl)C(Cl)Cl)cc1 (stereo not drawn) [BRD-A31204924-001-14-2]	inactive	71.30	71.94	70.66	decreasing (weakly active)		> 38				
Clc1ccc(C(Cn2ccnc2)OCc2ccc(Sc3ccccc3)cc2)c(Cl)c1 (stereo not drawn) [BRD-A33697453-008-02-4]	inactive	70.27	64.14	76.40	inactive						
CCCCCCCCCCCC([NH2+][O-])c1cc(C)ccc1O (stereo not drawn) [BRD-A37752546-001-01-9]	inactive	84.23	82.45	86.01	decreasing		7.8				
CC(=O)[C@@]12OC(C)(c3ccccc3)O[C@@H]1C[C@H]1[C@@H]3CCC4=CC(=O)CC[C@]4(C)[C@H]3CC[C@@]12C (stereo partly drawn) [BRD-A41774846-001-01-4]	decreasing (weakly active)	86.37	86.06	86.68	inactive	> 38					
COC(=O)C1=C(C)NC(C)=C(C(=O)OC/C=C/c2ccccc2)C1c1cccc([N+](=O)[O-])c1 (stereo not drawn) [BRD-A68083442-001-01-6]	inactive	87.10	86.49	87.72	inactive						
Clc1ccc(CSC(Cn2ccnc2)c2ccc(Cl)cc2Cl)cc1 (stereo not drawn) [BRD-A70649075-008-30-8]	decreasing (weakly active)	65.58	67.22	63.95	decreasing (weakly active)	> 38	> 38				
C[C@]12CCC3c4ccc(OC(=O)c5ccccc5)cc4CCC3C1CC[C@@H]2O (stereo partly drawn) [BRD-A74765037-001-01-1]	inactive	66.55	67.53	65.56	inactive						
C[C@]12CC[C@@H]3c4ccc(O)cc4C[C@@H](CCCCCCCCC[S+]([O-])CCCC(F)(F)C(F)(F)F)[C@H]3[C@@H]1CC[C@@H]2O (stereo partly drawn) [BRD-A85667082-001-10-1]		87.19	87.84	86.54							
C[C@]12CC[C@@H]3c4ccc(O)cc4C[C@@H](CCCCCCCCC[S+]([O-])CCCC(F)(F)C(F)(F)F)[C@H]3[C@@H]1CC[C@@H]2O (stereo partly drawn) [BRD-A85667082-001-12-7]	decreasing (weakly active)				inactive	> 38					
CC(C)Oc1ccc(-c2cnc3c(-c4ccnc5ccccc45)cnn3c2)cc1 [BRD-K39381259-001-01-0]	inactive				decreasing (weakly active)		> 13.5				
CC(C)Oc1ccc(-c2cnc3c(-c4ccnc5ccccc45)cnn3c2)cc1 [BRD-K39381259-001-02-8]		67.85	64.38	71.32							
C[C@H](Oc1cc(-c2cnn(C3CCNCC3)c2)cnc1N)c1c(Cl)ccc(F)c1Cl [BRD-K40308497-001-01-2]		86.27	85.50	87.03							
C[C@H](Oc1cc(-c2cnn(C3CCNCC3)c2)cnc1N)c1c(Cl)ccc(F)c1Cl [BRD-K40308497-001-02-0]	decreasing				decreasing	26.8	21.2				
CC(C)(O)c1ccccc1CC[C@@H](SCC1(CC(=O)O)CC1)c1cccc(/C=C/c2ccc3ccc(Cl)cc3n2)c1 [BRD-K69470111-001-01-2]	decreasing (weakly active)				increasing (weakly active)	> 38	> 38				
CC(C)(O)c1ccccc1CC[C@@H](SCC1(CC(=O)O)CC1)c1cccc(/C=C/c2ccc3ccc(Cl)cc3n2)c1 [BRD-K69470111-236-09-7]		81.70	81.35	82.06							
CC1(C)CCC(C)(C)c2cc(C#Cc3ccc(C(=O)O)cc3)ccc21 [BRD-K81004638-001-01-7]	decreasing				decreasing	19.8	14.5				
CC1(C)CCC(C)(C)c2cc(C#Cc3ccc(C(=O)O)cc3)ccc21 [BRD-K81004638-001-02-5]		66.58	64.60	68.56							
CCCCCCCCc1ccc(CCC(N)(CO)CO)cc1 [BRD-K88025533-003-03-3]		70.74	73.25	68.23							
CCCCCCCCc1ccc(CCC(N)(CO)CO)cc1 [BRD-K88025533-003-04-1]	inactive				inactive						
C/C=C1\[C@H]2C=C(C)C[C@]1(N)c1ccc(=O)[nH]c1C2 [Huperzine A, reference compound]	decreasing							64.1			
Nc1ccc(O)c(C(=O)O)c1 [Mesalazine, reference compound]	decreasing								Inactive	no detectable inhibitory effect	no inhibition detected
CNC(=O)Oc1ccc2c(c1)[C@]1(C)CCN(C)[C@@H]1N2C [Physostigmine salicylate, reference compound]	decreasing				decreasing						
CNC(=O)Oc1ccc2c(c1)[C@]1(C)CCN(C)[C@@H]1N2C [Physostigmine sulfate, reference compound]	decreasing				decreasing						
